# Measured values published in US6025378A, “Bicyclic heterocyclic compounds” (Bayer Aktiengesellschaft, priority 1995, dated 2000).
# Where two headings read alike, the source gives them in different places.
# Test system: ApoB-100-associated lipoproteins released from HepG2 cells
# Experiment: Inhibition of the release of ApoB-100-associated lipoproteins from cultured hepatic HepG2 cells (immunoassay for human LDL)
# Format: cell-based
# Conditions: culture supernatant, absorption at 450 nm inhibited by 50% vs solvent control, read-out: Apo B IC50
# Description: 1. Inhibition of the Release of ApoB-100-associated Lipoproteins
# The test for detection of the inhibition of the release of ApoB-100-associated lipoproteins from hepatic cells was carried out in vitro with cultured hepatic cells, preferably with cells of the human line HepG2. These cells are cultured under standard conditions in medium for culture of eukaryotic cells, preferably in RPMI 1640 with 10% foetal calf serum. HepG2 cells synthesize and secrete into the culture supernatant ApoB-100-associated lipoprotein particles, which are in principle built up similarly to the VLDL and LDL particles which are to be found in plasma.
# These particles can be detected with an immunoassay for human LDL. This immunoassay is carried out with antibodies which have been induced against human LDL in rabbits under standard conditions. The anti-LDL antibodies (rab-anti-LDL-Ab) were purified by affinity chromatography on an immunosorbent with human LDL. These purified rab-anti-LDL-Ab are adsorbed onto the surface of plastic. This adsorption is expediently carried out on the plastic surface of microtiter plates with 96 wells, preferably on MaxiSorp plates. If ApoB-100-associated particles are present in the supernatant of Hep-G2 cells, these can bond to the insolubilized rab-anti-LDL-Ab, and an immune complex bonded to the plastic surface is formed. Non-bonded proteins are removed by washing The immune complex on the plastic source is detected with monoclonal antibodies, which have been induced against human LDL and purified under standard conditions. These antibodies were conjugated with the enzyme peroxidase. Peroxidase converts the colourless substrate TMB into a coloured product in the presence of H2 O2. After acidification of the reaction mixture with H2 SO4, the specific absorption of light is determined at 450 nm, this being a measure of the amount of ApoB-100-associated particles wich had been secreted by the HepG2 cells into the culture supernatant.
# The IC50 value indicates the concentration of substance at which the absorption of light is inhibited by 50% compared with the control (solvent control without the substance).
# [1] = Homo sapiens, HepG2, HepG2 cells
IC50 [1],IC50 (HepG2 cells),Compound
15.2 nM,–,"C[S+]([O-])c1nc2ccccc2n1Cc1ccc(C(C(=O)N[C@@H](CO)c2ccccc2)C2CCCCCC2)cc1 (mixture of isomers) [Example 79, 2-(R/S)-Cycloheptyl-N-(2-hydroxy-1-(R)-phenylethyl)-2-[4-(2-methyl-(R/S)-sulphinyl-benzimidazol-1-ylmethyl)phenyl]acetamide]"
–,8 nM,"CSc1nc2ccccc2n1Cc1ccc(C(C(=O)N[C@@H](CO)c2ccccc2)C2CCCCCC2)cc1 (single isomer, unassigned) [Example 6]"
–,150 nM,"CSc1nc2ccccc2n1Cc1ccc(C(C(=O)N[C@@H](CO)c2ccccc2)C2CCCCCC2)cc1 (single isomer, unassigned) [Example 7]"
–,4.5 nM,"O=C(N[C@@H](CO)c1ccccc1)C(c1ccc(Cn2c(-c3cscn3)nc3ccccc32)cc1)C1CCCC1 (single isomer, unassigned) [Example 26]"
–,90.9 nM,"O=C(N[C@@H](CO)c1ccccc1)C(c1ccc(Cn2c(-c3cscn3)nc3ccccc32)cc1)C1CCCC1 (single isomer, unassigned) [Example 27]"
–,112 nM,"O=C(N[C@@H](CO)c1ccccc1)C(c1ccc(Cn2c(-c3cscn3)nc3ccccc32)cc1)C1CCCCCC1 (single isomer, unassigned) [Example 30]"
–,7.3 nM,"O=C(N[C@@H](CO)c1ccccc1)C(c1ccc(Cn2c(-c3cscn3)nc3ccccc32)cc1)C1CCCCCC1 (single isomer, unassigned) [Example 31]"
–,26.6 nM,"Cc1nc(-c2nc3ccccc3n2Cc2ccc(C(C(=O)N[C@@H](CO)c3ccccc3)C3CCCC3)cc2)cs1 (single isomer, unassigned) [Example 34]"
–,11.2 nM,"Cc1nc(-c2nc3ccccc3n2Cc2ccc(C(C(=O)N[C@@H](CO)c3ccccc3)C3CCCC3)cc2)cs1 (single isomer, unassigned) [Example 35]"
36 nM,–,CSc1nc2ccccc2n1Cc1ccc(C(C(=O)N[C@@H](CO)c2ccccc2)C2CCCCCC2)cc1 (some centres unmarked) [Example 5]
7.3 nM,–,O=C(N[C@@H](CO)c1ccccc1)C(c1ccc(Cn2c(-c3cscn3)nc3ccccc32)cc1)C1CCCC1 (some centres unmarked) [Example 25]
27.9 nM,–,O=C(N[C@@H](CO)c1ccccc1)C(c1ccc(Cn2c(-c3cscn3)nc3ccccc32)cc1)C1CCCCC1 (some centres unmarked) [Example 28]
9.3 nM,–,O=C(N[C@@H](CO)c1ccccc1)C(c1ccc(Cn2c(-c3cscn3)nc3ccccc32)cc1)C1CCCCCC1 (some centres unmarked) [Example 29]
5.3 nM,–,O=C(NCc1ccccc1)C(c1ccc(Cn2c(-c3cscn3)nc3ccccc32)cc1)C1CCCCCC1 (centres unmarked) [Example 32]
5.3 nM,–,Cc1nc(-c2nc3ccccc3n2Cc2ccc(C(C(=O)N[C@@H](CO)c3ccccc3)C3CCCC3)cc2)cs1 (some centres unmarked) [Example 33]
3.6 nM,–,O=C(N[C@@H](CO)c1ccccc1)C(c1ccc(Cn2c(-c3ccsc3)nc3ccccc32)cc1)C1CCCC1 (some centres unmarked) [Example 37]
81.7 nM,–,O=C(N[C@@H](CO)c1ccccc1)C(c1ccc(Cn2c(-c3cccs3)nc3ccccc32)cc1)C1CCCC1 (some centres unmarked) [Example 39]
11.3 nM,–,O=C(N[C@@H](CO)c1ccccc1)C(c1ccc(Cn2c(-c3ccccn3)nc3ccccc32)cc1)C1CCCC1 (some centres unmarked) [Example 44]
18.8 nM,–,O=C(N[C@@H](CO)c1ccccc1)C(c1ccc(Cn2c(-c3ccccn3)nc3ccccc32)cc1)C1CCCCCC1 (some centres unmarked) [Example 47]
3.6 nM,–,O=C(N[C@@H](CO)c1ccccc1)C(c1ccc(Cn2c(-c3cccnc3)nc3ccccc32)cc1)C1CCCC1 (some centres unmarked) [Example 49]
17.9 nM,–,O=C(N[C@@H](CO)c1ccccc1)C(c1ccc(Cn2c(-c3ccncc3)nc3ccccc32)cc1)C1CCCC1 (some centres unmarked) [Example 50]

# The next lines start with the molecule.
Compound,IC50 [1],IC50 (HepG2 cells)
"CSc1nc2ccccc2n1Cc1ccc(C(C(=O)N[C@@H](CO)c2ccccc2)C2CCCC2)cc1 (single isomer, unassigned) [Example 3]",–,11.6 nM
"CSc1nc2ccccc2n1Cc1ccc(C(C(=O)N[C@@H](CO)c2ccccc2)C2CCCC2)cc1 (single isomer, unassigned) [Example 4]",–,298 nM
"O=C(N[C@@H](CO)c1ccccc1)C(c1ccc(Cn2c(SCc3ccccc3)nc3ccccc32)cc1)C1CCCC1 (single isomer, unassigned) [Example 12]",12.6 nM,–
"O=C(N[C@@H](CO)c1ccccc1)C(c1ccc(Cn2c(SCc3ccccc3)nc3ccccc32)cc1)C1CCCC1 (single isomer, unassigned) [Example 13]",–,14.3 nM
"O=C(CSc1nc2ccccc2n1Cc1ccc(C(C(=O)N[C@@H](CO)c2ccccc2)C2CCCC2)cc1)c1ccccc1 (single isomer, unassigned) [Example 18]",–,930 nM
"O=C(CSc1nc2ccccc2n1Cc1ccc(C(C(=O)N[C@@H](CO)c2ccccc2)C2CCCC2)cc1)c1ccccc1 (single isomer, unassigned) [Example 19]",–,388 nM
"Cc1cc2nc(C(F)(F)F)n(Cc3ccc(C(C(=O)N[C@@H](CO)c4ccccc4)C4CCCC4)cc3)c2cc1C (single isomer, unassigned) [Example 23]",–,147 nM
"Cc1cc2nc(C(F)(F)F)n(Cc3ccc(C(C(=O)N[C@@H](CO)c4ccccc4)C4CCCC4)cc3)c2cc1C (single isomer, unassigned) [Example 24]",–,16.3 nM
"Cc1nc2ccccc2c(=O)n1Cc1ccc(C(C(=O)N[C@@H](CO)c2ccccc2)C2CCCC2)cc1 (stereo partly drawn) [Example 1, 2-Cyclopentyl-N-(2-hydroxy-1-(R)-phenylethyl)-2-[4-(2-methyl-4-oxo-4H-quinazolin-3-yl-methyl)phenyl]acetamide]",44.4 nM,–
CSc1nc2ccccc2n1Cc1ccc(C(C(=O)N[C@@H](CO)c2ccccc2)C2CCCC2)cc1 (some centres unmarked) [Example 2],38.1 nM,–
CSc1nc2cc(C)c(C)cc2n1Cc1ccc(C(C(=O)N[C@@H](CO)c2ccccc2)C2CCCC2)cc1 (some centres unmarked) [Example 8],4.7 nM,–
CCSc1nc2ccccc2n1Cc1ccc(C(C(=O)N[C@@H](CO)c2ccccc2)C2CCCC2)cc1 (some centres unmarked) [Example 9],2.8 nM,–
C=CCSc1nc2ccccc2n1Cc1ccc(C(C(=O)N[C@@H](CO)c2ccccc2)C2CCCC2)cc1 (some centres unmarked) [Example 10],9.5 nM,–
O=C(N[C@@H](CO)c1ccccc1)C(c1ccc(Cn2c(SCc3ccccc3)nc3ccccc32)cc1)C1CCCC1 (some centres unmarked) [Example 11],4.7 nM,–
O=C(N[C@@H](CO)c1ccccc1)C(c1ccc(Cn2c(SCc3c(Cl)cccc3Cl)nc3ccccc32)cc1)C1CCCC1 (some centres unmarked) [Example 14],130 nM,–
O=C(N[C@@H](CO)c1ccccc1)C(c1ccc(Cn2c(Cc3ccccc3)nc3ccccc32)cc1)C1CCCC1 (some centres unmarked) [Example 20],248 nM,–

Compound,IC50 [1],IC50 (HepG2 cells)
O=C(N[C@@H](CO)c1ccccc1)C(c1ccc(Cn2c(-c3csc(-c4ccccc4)n3)nc3ccccc32)cc1)C1CCCC1 (some centres unmarked) [Example 36],9.1 nM,–
Cc1ccc2c(nc(-c3ccsc3)n2Cc2ccc(C(C(=O)N[C@@H](CO)c3ccccc3)C3CCCC3)cc2)c1C (some centres unmarked) [Example 38],36.3 nM,–
Cc1ccc2c(nc(-c3cccs3)n2Cc2ccc(C(C(=O)N[C@@H](CO)c3ccccc3)C3CCCC3)cc2)c1C (some centres unmarked) [Example 40],69 nM,–
O=C(N[C@@H](CO)c1ccccc1)C(c1ccc(Cn2c(-c3cc4ccccc4s3)nc3ccccc32)cc1)C1CCCC1 (some centres unmarked) [Example 41],10.6 nM,–
O=C(NCc1ccccc1)C(c1ccc(Cn2c(-c3ccccn3)nc3ccccc32)cc1)C1CCCCCC1 (centres unmarked) [Example 48],6.3 nM,–
O=C(N[C@@H](CO)c1ccccc1)C(c1ccc(Cn2c(=O)oc3ccccc32)cc1)C1CCCCCC1 (some centres unmarked) [Example 51],5.7 nM,–
O=C(N[C@@H](CO)c1ccccc1)C(c1ccc(Cn2c(=S)[nH]c3ccccc32)cc1)C1CCCCCC1 (some centres unmarked) [Example 52],518 nM,–
Cc1cccc2c1[nH]c(=S)n2Cc1ccc(C(C(=O)N[C@@H](CO)c2ccccc2)C2CCCC2)cc1 (some centres unmarked) [Example 53],–,1690 nM
Cc1cccc2c1[nH]c(=S)n2Cc1ccc(C(C(=O)N[C@@H](CO)c2ccccc2)C2CCCC2)cc1 (some centres unmarked) [Example 54],–,60.2 nM
Cc1cccc2c1[nH]c(=S)n2Cc1ccc(C(C(=O)N[C@@H](CO)c2ccccc2)C2CCCC2)cc1 (some centres unmarked) [Example 55],–,19.5 nM
O=C(N[C@@H](CO)c1ccccc1)C(c1ccc(CN2C(=O)COc3cccnc32)cc1)C1CCCCCC1 (some centres unmarked) [Example 57],–,5 nM
O=C(N[C@@H](CO)c1ccccc1)C(c1ccc(CN2C(=O)COc3cccnc32)cc1)C1CCCCCC1 (some centres unmarked) [Example 58],–,251 nM
O=C(N[C@@H](CO)c1ccccc1)C(c1ccc(CN2C(=O)CSc3ccccc32)cc1)C1CCCCCC1 (some centres unmarked) [Example 59],29.2 nM,–
O=C(N[C@@H](CO)c1ccccc1)C(c1ccc(CN2C(=O)c3ccccc3C2=O)cc1)C1CCCCCC1 (some centres unmarked) [Example 60],–,9.7 nM
O=C(N[C@@H](CO)c1ccccc1)C(c1ccc(CN2C(=O)c3ccccc3C2=O)cc1)C1CCCCCC1 (some centres unmarked) [Example 61],–,38.9 nM
O=C(N[C@@H](CO)c1ccccc1)C(c1ccc(CN2C(=O)c3ccccc3C2=O)cc1)C1CCCCCC1 (some centres unmarked) [Example 62],–,123 nM
